Where “and” joins values, the source holds several entries; their conditions need not be identical. Equal values may be shown once.
These molecules were tested against Glycogen synthase kinase-3 beta (Homo sapiens, UniProt P49841) (assay: TR-FRET Assay).
Procedure: The assay was performed in a white, 384 well, low volume, flat bottom plate (Grenier). […] The kinase activity was quenched with 2 μL of 250 mM EDTA. A 10 μL volume of 40 nM Strepavidin-d2, 2 nM Tb2+-pSer641 antibody in TR-FRET Detection Buffer (Invitrogen) was then added.

Chain of Glycogen synthase kinase-3 beta (P49841 whole entry): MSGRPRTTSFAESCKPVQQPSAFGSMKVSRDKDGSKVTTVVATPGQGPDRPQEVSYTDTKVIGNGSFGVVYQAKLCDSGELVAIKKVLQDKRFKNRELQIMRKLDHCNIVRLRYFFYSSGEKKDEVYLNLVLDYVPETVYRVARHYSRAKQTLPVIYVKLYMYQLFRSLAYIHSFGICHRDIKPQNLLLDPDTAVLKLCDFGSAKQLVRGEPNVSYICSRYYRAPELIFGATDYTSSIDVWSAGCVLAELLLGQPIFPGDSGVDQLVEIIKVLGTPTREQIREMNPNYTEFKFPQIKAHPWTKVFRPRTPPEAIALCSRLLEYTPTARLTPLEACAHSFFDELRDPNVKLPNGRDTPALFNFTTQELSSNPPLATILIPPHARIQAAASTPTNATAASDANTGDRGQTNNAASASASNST

Row | Compound | IC50
1 | CCC1(c2cccc(-c3cc(C)nnc3C)c2)C2=C(CC(C)(C)NC2=O)NC2N=NC(C)=C21 (centres undefined) [US20250313563, Compound 948766] | 100 to 1000 nM
2 | Cc1ccc(C(=O)N2CC3(C2)C[C@]2(CO3)C3=C(N=NC3)NC3=C2C(=O)CC(C)(C)C3)cc1C [US20250313563, Compound 948038] | < 100 nM and 100 to 1000 nM
3 | CC[C@]1(c2cccc(-c3cnn(C)c3C)c2)C2=C(CC(C)(C)CC2=O)NC2N=NC(C)=C21 (some centres undefined) [US20250313563, Compound 913045] | < 100 nM and 100 to 1000 nM
4 | CC[C@]1(c2cccc(-c3ccncc3C)c2)C2=CN=NC2NC2=C1C(=O)NC(C)(C)C2 (some centres undefined) [US20250313563, Compound 947576] | 1000 to 5000 nM
5 | CC[C@@]1(c2cccc(C(F)F)c2)C2=C(CC(C)(C)NC2=O)NC2N=NC(C(F)(F)F)=C21 (some centres undefined) [US20250313563, Compound 951948] | 100 to 1000 nM
6 | CC1(C)CC(=O)C2=C(C1)NC1=C(CN=N1)[C@@]21COC2(CN(C(=O)C3CCC4(CC3)COC4)C2)C1 [US20250313563, Compound 944075] | 100 to 1000 nM
7 | CC[C@@]1(c2cccc(N(C)c3ncccn3)c2)C2=C(CC(C)(C)NC2=O)NC2N=NC(C(F)(F)F)=C21 (some centres undefined) [US20250313563, Compound 949181] | < 100 nM and 100 to 1000 nM
8 | CC[C@]1(c2cccc(-c3cc(C)ncc3F)c2)C2=CN=NC2NC2=C1C(=O)NC(C)(C)C2 (some centres undefined) [US20250313563, Compound 947804] | 100 to 1000 nM
9 | CC[C@@]1(c2cccc(-c3ccnc(C)c3)c2)C2=CN=NC2NC2=C1C(=O)C[C@]1(CCOC1)C2 (some centres undefined) [US20250313563, Compound 947407] | 1000 to 5000 nM
10 | CC[C@@]1(c2cccc(-c3c(Cl)cncc3Cl)c2)C2=CN=NC2NC2=C1C(=O)NC(C)(C)C2 (some centres undefined) [US20250313563, Compound 948515] | 100 to 1000 nM
11 | CC[C@@]1(c2cccc(-c3ccnc(C)c3)c2)C2=CN=NC2NC2=C1C(=O)N[C@]1(CCCOC1)C2 (some centres undefined) [US20250313563, Compound 948152] | 100 to 1000 nM
12 | CC[C@]1(c2cccc(-c3ccnc4c3CCCC4)c2)C2=C(N=NC2)NC2=C1C(=O)N(Cc1ccccc1)C2 [US20250313563, Compound 948551] | 100 to 1000 nM
13 | CC[C@@]1(c2cccc(-c3c(F)cncc3OC)c2)C2=CN=NC2NC2=C1C(=O)CC(C)(C)[C@@H]2F (some centres undefined) [US20250313563, Compound 948548] | 100 to 1000 nM
14 | CC(C)(C)CC1N=NC2=C1C1(CN(c3ccccc3)C1)C1=C(CC(C)(C)CC1=O)N2 (centres undefined) [US20250313563, Compound 93429] | 1000 to 5000 nM and 134 nM
15 | CC[C@]1(c2cccc(S(=O)(=O)C3CC3)c2)C2=CN=NC2NC2=C1C(=O)CC(C)(C)C2 (some centres undefined) [US20250313563, Compound 912171] | < 100 nM and 100 to 1000 nM
16 | COC(=O)C1(c2ccccc2)CC2(C1)C1=C(N=NC1)NC1=C2C(=O)CC(C)(C)C1 (centres undefined) [US20250313563, Compound 942344] | 100 to 1000 nM
17 | CC[C@@]1(c2cccc(-c3ccnn3C)c2)C2=C(CC(C)(C)CC2=O)NC2N=NC(C)=C21 (some centres undefined) [US20250313563, Compound 913023] | < 100 nM and 100 to 1000 nM
18 | CC[C@]1(c2cccc(-c3ccnc(C)c3C)c2)C2=CN=NC2NC2=C1C(=O)CC(C)(C)C2 (some centres undefined) [US20250313563, Compound 943516] | 1000 to 5000 nM

Row | Compound | IC50
19 | CC[C@]1(c2cccc(-c3ccnc(C)c3)c2)C2=CN=NC2NC2=C1C(=O)NC(C)(COC)C2 (some centres undefined) [US20250313563, Compound 948521] | 1000 to 5000 nM
20 | CC[C@]1(c2cccc(-c3cc(C)ncc3C)c2)C2=C(CC(C)(C)CC2=O)NC2N=NC(C(F)(F)F)=C21 (some centres undefined) [US20250313563, Compound 947363] | 100 to 1000 nM
21 | CC[C@]1(c2cccc(-c3c(F)cncc3OC)c2)C2=CN=NC2NC2=C1C(=O)CC(C)(C)[C@H]2F (some centres undefined) [US20250313563, Compound 948545] | 100 to 1000 nM
22 | CC[C@@]1(c2cccc(-c3ccncc3Cl)c2)C2=CN=NC2NC2=C1C(=O)NC(C)(C)C2 (some centres undefined) [US20250313563, Compound 948142] | 100 to 1000 nM
23 | CC[C@]1(c2cccc(-c3ccncc3C)c2)C2=CN=NC2NC2=C1C(=O)NC1(CCC1)C2 (some centres undefined) [US20250313563, Compound 948523] | 100 to 1000 nM
24 | CC[C@]1(c2cccc(S(=O)(=O)C(C)C)c2)C2=C(CC(C)(C)NC2=O)NC2=C1C(C)N=N2 (some centres undefined) [US20250313563, Compound 947870] | 100 to 1000 nM
25 | CCC1(c2cccc(N3CCC[C@H]3C)c2)C2=CN=NC2NC2=C1C(=O)CC(C)(C)C2 (some centres undefined) [US20250313563, Compound 885204] | 100 to 1000 nM
26 | CC1(C)CC(=O)C2=C(C1)NC1=C(CN=N1)[C@@]21COC2(CN(C(=O)C3(F)CCC3)C2)C1 [US20250313563, Compound 947736] | 100 to 1000 nM
27 | CC(C)(C)CC1N=NC2=C1[C@@]1(CCc3cccc(F)c31)C1=C(CC(C)(C)CC1=O)N2 (some centres undefined) [US20250313563, Compound 801351] | 100 to 1000 nM
28 | CC[C@@]1(c2cccc(C)c2)C2=C(CC(C)(C)CC2=O)NC2N=NC(C(F)(F)F)=C21 (some centres undefined) [US20250313563, Compound 883873] | 100 to 1000 nM
29 | CC[C@]1(c2cccc(COC)c2)C2=CN=NC2NC2=C1C(=O)CC(C)(C)C2 (some centres undefined) [US20250313563, Compound 810360] | 100 to 1000 nM
30 | CC[C@]1(c2cccc(N(C)c3ccnc(OC)c3)c2)C2=CN=NC2NC2=C1C(=O)CC(C)(C)C2 (some centres undefined) [US20250313563, Compound 932642] | 100 to 1000 nM
31 | CC1(C)CC(=O)C2=C(C1)NC1N=NC(C3(C(F)(F)F)CC3)=C1[C@@]21CCc2c(F)cccc21 (some centres undefined) [US20250313563, Compound 816839] | 1000 to 5000 nM
32 | CC[C@]1(c2cccc(Br)c2)C2=CN=NC2NC2=C1C(=O)[C@H](F)C(C)(C)C2 (some centres undefined) [US20250313563, Compound 835314] | 100 to 1000 nM
33 | CC[C@]1(c2cccc(-c3c(C)cnc4ccccc34)c2)C2=C(CC(C)(C)NC2=O)NC2=NN=CC21 (some centres undefined) [US20250313563, Compound 949398] | 100 to 1000 nM
34 | CC[C@]1(c2cccc(S(=O)(=O)CC3CC3)c2)C2=CN=NC2NC2=C1C(=O)CC(C)(C)C2 (some centres undefined) [US20250313563, Compound 917150] | 100 to 1000 nM
35 | CC[C@]1(c2cccc(Cl)c2)C2=C(CC(C)(C)CC2=O)NC2N=NC(Br)=C21 (some centres undefined) [US20250313563, Compound 801314] | < 100 nM and 100 to 1000 nM
36 | CC[C@@]1(c2cccc(Oc3ncccn3)c2)C2=CN=NC2NC2=C1C(=O)CC(C)(C)C2 (some centres undefined) [US20250313563, Compound 947808] | 100 to 1000 nM

Second part, the molecule after the results:

Row | IC50 | Compound
37 | > 5000 nM | CC[C@@]1(c2cccc(C(F)(F)F)c2)C2=C(N=NC2)NC2=C1C(=O)N(C)[C@H]2C [US20250313563, Compound 913495]
38 | 100 to 1000 nM | CC[C@]1(c2cccc(-c3cn(C)nc3C(F)(F)F)c2)C2=CN=NC2NC2=C1C(=O)NC(C)(C)C2 (some centres undefined) [US20250313563, Compound 949266]
39 | 100 to 1000 nM | CC[C@]1(c2cccc(C(F)(F)F)c2)C2=CN=NC2NC2=C1C(=O)N(c1cnc(OC)nc1)[C@H](C)C2 (some centres undefined) [US20250313563, Compound 949351]
40 | 100 to 1000 nM | CC[C@]1(c2cccc(-c3cnn(C)c3)c2)C2=CN=NC2NC2=C1C(=O)C[C@H](C)C2 (some centres undefined) [US20250313563, Compound 823720]
41 | 100 to 1000 nM | CC[C@]1(c2cccc(C(F)(F)F)c2)C2=C(CC(C)(C)CC2=O)NC2N=NC(Br)=C21 (some centres undefined) [US20250313563, Compound 810466]
42 | 100 to 1000 nM | CC[C@@]1(c2cccc(C(F)(F)F)c2)C2=CN=NC2NC2=C1C(=O)N(CC(F)(F)F)CC2 (some centres undefined) [US20250313563, Compound 912206]
43 | 100 to 1000 nM | CC[C@]1(c2cccc(C(F)(F)F)c2)C2=CN=NC2NC2=C1C(=O)N(c1ccn(C)n1)CC2 (some centres undefined) [US20250313563, Compound 949835]
44 | 100 to 1000 nM and > 5000 nM | CC[C@@]1(c2cccc(-c3cnn(C(C)(C)C)c3)c2)C2=CN=NC2NC2=C1C(=O)NC(C)(C)C2 (some centres undefined) [US20250313563, Compound 949112]
45 | 100 to 1000 nM | CCC1(c2cccc(C(F)(F)F)c2)C2=C(N=NC2)NC2=C1C(=O)N(C)C2C (centres undefined) [US20250313563, Compound 911957]
46 | 100 to 1000 nM | CC[C@]1(c2cccc(C(F)(F)F)c2)C2=C(N=NC2)NC2=C1C(=O)N(C)[C@@H]2C [US20250313563, Compound 913454]
47 | 100 to 1000 nM | CC[C@]1(c2cccc(-c3ccnc(O)c3)c2)C2=CN=NC2NC2=C1C(=O)CC(C)(C)C2 (some centres undefined) [US20250313563, Compound 943992]
48 | 100 to 1000 nM | CC[C@@]1(c2cccc(-c3cc(C)nn3C)c2)C2=CN=NC2NC2=C1C(=O)CC(C)(C)C2 (some centres undefined) [US20250313563, Compound 946097]
49 | 100 to 1000 nM | CC[C@]1(c2cccc(-c3ccncc3C)c2)C2=CN=NC2NC2=C1C(=O)CC(C)(C)C2 (some centres undefined) [US20250313563, Compound 943990]
50 | 100 to 1000 nM | CC[C@@]1(c2cccc(-c3cnn(C)c3C#N)c2)C2=CN=NC2NC2=C1C(=O)NC(C)(C)C2 (some centres undefined) [US20250313563, Compound 948827]
51 | 100 to 1000 nM | CC[C@]1(c2cccc(-c3ccnn3C)c2)C2=CN=NC2NC2=C1C(=O)NC1(CCOCC1)C2 (some centres undefined) [US20250313563, Compound 948516]
52 | 100 to 1000 nM | CC[C@@]1(c2cccc(-c3cnn(CC#N)c3)c2)C2=CN=NC2NC2=C1C(=O)NC(C)(C)C2 (some centres undefined) [US20250313563, Compound 952210]
53 | > 5000 nM | CC[C@@]1(c2cccc(C(F)(F)F)c2)C2=C(N=NC2)NC2=C1C(=O)N(C)[C@@H]2C [US20250313563, Compound 913475]
54 | 100 to 1000 nM | CC[C@]1(c2cccc(C(F)(F)F)c2)C2=CN=NC2NC2=C1C(=O)N(c1cnn(C)c1)CC2 (some centres undefined) [US20250313563, Compound 949270]
55 | 100 to 1000 nM | CC[C@]1(c2cccc(C(F)(F)F)c2)C2=CN=NC2NC2=C1C(=O)N(c1cccc(C)c1)CC2 (some centres undefined) [US20250313563, Compound 949040]
56 | 100 to 1000 nM | CC[C@@]1(c2cccc(OC)c2)C2=CN=NC2NC2=C1C(=O)C[C@H](C)C2 (some centres undefined) [US20250313563, Compound 811559]
57 | 100 to 1000 nM | CC[C@@]1(c2cccc(C(F)(F)F)c2)C2=CN=NC2NC2=C1C(=O)NC[C@@H]2C (some centres undefined) [US20250313563, Compound 945382]
58 | 100 to 1000 nM | CC[C@@]1(c2cccc(-c3ccnn3C)c2)C2=CN=NC2NC2=C1C(=O)N[C@](C)(COC)C2 (some centres undefined) [US20250313563, Compound 947905]
59 | 1000 to 5000 nM | CC[C@@]1(c2cccc(-c3cc(C)ncc3F)c2)C2=CN=NC2NC2=C1C(=O)CC(C)(C)C2 (some centres undefined) [US20250313563, Compound 927346]

Reference: BindingDB's records for patent US20250313563 (The Broad Institute, 2025)
